PubChem BioAssay AID330 (DTP/NCI, 2004)
Toxic doses and inconclusive results are not listed.

System: P388 leukemia ip, CD2F1 mice, survival T/C
Assay: NCI In Vivo Anticancer Drug Screen. Data for tumor model P388 Leukemia (intraperitoneal) in CD2F1 (CDF1) mice
Conditions: endpoint: median survival time, higher = longer survival
How it was run: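 Mice carrying the transplanted tumor received test compound or vehicle. Survival was recorded in each group, and the value is the treated-group measurement divided by that of the vehicle-treated control group.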

[1] = dose: 60.0 mg/kg/injection, schedule: Q01DX005 (ip), vehicle: saline with Tween-80
[2] = dose: 120.0 mg/kg/injection, schedule: Q01DX005 (ip), vehicle: saline with Tween-80
[3] = dose: 240.0 mg/kg/injection, schedule: Q01DX005 (ip), vehicle: saline with Tween-80
[4] = dose: 25.0 mg/kg/injection, schedule: Q01DX005 (ip), vehicle: Klucel (hydroxypropylcellulose) (HPC)
[5] = dose: 50.0 mg/kg/injection, schedule: Q01DX005 (ip), vehicle: Klucel (hydroxypropylcellulose) (HPC)
[6] = dose: 100.0 mg/kg/injection, schedule: Q01DX005 (ip), vehicle: Klucel (hydroxypropylcellulose) (HPC)
[7] = dose: 200.0 mg/kg/injection, schedule: Q01DX005 (ip), vehicle: Klucel (hydroxypropylcellulose) (HPC)
[8] = dose: 50.0 mg/kg/injection, schedule: Q01DX009 (ip), vehicle: saline
[9] = dose: 100.0 mg/kg/injection, schedule: Q01DX009 (ip), vehicle: saline

How did the T/C [1] turn out when `CCOC(=O)C1=C(Nc2ccc(Br)cc2)C(=O)N(CC)C1` was run?
The T/C was 109 % of control.

And the T/C [2]?
Its T/C is 100 % of control.

What about the T/C [3] of the same molecule?
Its T/C is 106 % of control.

For `CCCn1c(C)nc2c(N)cc(C)cc21`, which T/C [4] is on record?
The T/C was 101 % of control.

And the T/C [5]?
Its T/C is 94 % of control.

What about the T/C [6] of the same molecule?
Its T/C is 97 % of control.

What does the source list for `CCCCCCCCCCCCCCCCS(=O)(=O)N/N=C(\c1ccc(C(C)C)cc1)N1CCOCC1`?
T/C (dose: 50.0 mg/kg/injection, schedule: Q01DX009 (ip), vehicle: Klucel (hydroxypropylcellulose) (HPC)): 90 % of control; T/C (dose: 100.0 mg/kg/injection, schedule: Q01DX009 (ip), vehicle: Klucel (hydroxypropylcellulose) (HPC)): 89 % of control; T/C (dose: 200.0 mg/kg/injection, schedule: Q01DX009 (ip), vehicle: Klucel (hydroxypropylcellulose) (HPC)): 90 % of control

`Nc1nc(C2CCCCC2)c(Br)c(=O)[nH]1` was tested. Which T/C [5] did it give?
The T/C was 97 % of control.

And the T/C [6]?
The T/C was 92 % of control.

And the T/C [7]?
Its T/C is 92 % of control.

`Cn1ccc(N)nc1=O` was tested. Which T/C (dose: 50.0 mg/kg/injection, schedule: Q01DX005 (ip), vehicle: saline) did it give?
The T/C was 101 % of control.

And the T/C (dose: 100.0 mg/kg/injection, schedule: Q01DX005 (ip), vehicle: saline)?
Its T/C is 107 % of control.

And the T/C (dose: 200.0 mg/kg/injection, schedule: Q01DX005 (ip), vehicle: saline)?
Its T/C is 104 % of control.

For `O=C1CN=C(c2ccccc2)N(c2ccccc2)N1`, which T/C (dose: 60.0 mg/kg/injection, schedule: Q01DX005 (ip), vehicle: Klucel (hydroxypropylcellulose) (HPC)) is on record?
Its T/C is 107 % of control.

What about the T/C (dose: 120.0 mg/kg/injection, schedule: Q01DX005 (ip), vehicle: Klucel (hydroxypropylcellulose) (HPC)) of the same molecule?
Its T/C is 100 % of control.

What about the T/C (dose: 240.0 mg/kg/injection, schedule: Q01DX005 (ip), vehicle: Klucel (hydroxypropylcellulose) (HPC)) of the same molecule?
Its T/C is 103 % of control.

What does the source list for `Cc1cc(CC(O)(c2ccccc2)c2ccccc2)nc2[nH]c(=O)ccc12`?
T/C [4]: 97 % of control; T/C [5]: 103 % of control; T/C [6]: 98 % of control; T/C [7]: 96 % of control

`CC(/C=C(\C)N1CCCC1)=[N+]1CCCC1` was tested. Which T/C (dose: 0.12 mg/kg/injection, schedule: Q01DX009 (ip), vehicle: saline) did it give?
Its T/C is 111 % of control.

And the T/C (dose: 0.25 mg/kg/injection, schedule: Q01DX009 (ip), vehicle: saline)?
The T/C was 111 % of control.

What about the T/C (dose: 0.5 mg/kg/injection, schedule: Q01DX009 (ip), vehicle: saline) of the same molecule?
The T/C was 108 % of control.

And the T/C (dose: 1.0 mg/kg/injection, schedule: Q01DX009 (ip), vehicle: saline)?
The T/C was 109 % of control.

And the T/C (dose: 2.0 mg/kg/injection, schedule: Q01DX009 (ip), vehicle: saline)?
The T/C was 109 % of control.

With `COCC1(C)CCCC2(C)C3=C(CCC(O)C3)CCC12` (stereo unspecified) as the molecule, how does the T/C (dose: 100.0 mg/kg/injection, schedule: Q04DX003 (ip), vehicle: saline) read?
Its T/C is 99 % of control.

And the T/C (dose: 200.0 mg/kg/injection, schedule: Q04DX003 (ip), vehicle: saline)?
The T/C was 99 % of control.

And the T/C (dose: 400.0 mg/kg/injection, schedule: Q04DX003 (ip), vehicle: saline)?
The T/C was 97 % of control.

Which T/C (dose: 4.38 mg/kg/injection, schedule: Q01DX005 (ip), vehicle: Klucel (hydroxypropylcellulose) (HPC)) does the source give for `COc1cc(OC)c2c3c1CCC(O)=C3C(=O)OC2` here?
Its T/C is 94 % of control.

What about the T/C (dose: 8.75 mg/kg/injection, schedule: Q01DX005 (ip), vehicle: Klucel (hydroxypropylcellulose) (HPC)) of the same molecule?
The T/C was 94 % of control.

What about the T/C (dose: 17.5 mg/kg/injection, schedule: Q01DX005 (ip), vehicle: Klucel (hydroxypropylcellulose) (HPC)) of the same molecule?
The T/C was 94 % of control.

How did the T/C (dose: 100.0 mg/kg/injection, schedule: Q04DX002 (ip), vehicle: saline with Tween-80) turn out when `O=C1OC(c2ccccc2)c2cccnc21` (stereo unspecified) was run?
Its T/C is 101 % of control.

And the T/C (dose: 200.0 mg/kg/injection, schedule: Q04DX002 (ip), vehicle: saline with Tween-80)?
Its T/C is 92 % of control.

What about the T/C (dose: 400.0 mg/kg/injection, schedule: Q04DX002 (ip), vehicle: saline with Tween-80) of the same molecule?
Its T/C is 98 % of control.

Which T/C [8] does the source give for `Fc1ccc(NC(=S)SCc2ccccc2)cc1F` here?
The T/C was 100 % of control.

And the T/C [9]?
The T/C was 108 % of control.

What about the T/C (dose: 200.0 mg/kg/injection, schedule: Q01DX009 (ip), vehicle: saline) of the same molecule?
Its T/C is 107 % of control.

With `COC(=O)C1=CCOc2c1c(C(=O)OC)nn2C` as the molecule, how does the T/C (dose: 50.0 mg/kg/injection, schedule: Q01DX005 (ip), vehicle: saline with Tween-80) read?
The T/C was 97 % of control.

And the T/C (dose: 100.0 mg/kg/injection, schedule: Q01DX005 (ip), vehicle: saline with Tween-80)?
Its T/C is 98 % of control.

And the T/C (dose: 200.0 mg/kg/injection, schedule: Q01DX005 (ip), vehicle: saline with Tween-80)?
The T/C was 96 % of control.

For `CCCCCCCC[N+](C)([O-])CCCCCC[N+](C)([O-])CCCCCCCC` (stereo unspecified), which T/C [8] is on record?
The T/C was 99 % of control.

What about the T/C [9] of the same molecule?
The T/C was 94 % of control.

Which T/C (dose: 15.0 mg/kg/injection, schedule: Q04DX003 (ip), vehicle: saline) does the source give for `COc1cc2cc3c4cc5c(cc4cc[n+]3c(C)c2cc1OC)OCO5` (tested in a mixture with another compound) here?
The T/C was 153 % of control.

What does the source list for `CC1=NNC(=O)CC1C(O)c1ccc(F)cc1` (stereo unspecified)?
T/C [1]: 100 % of control; T/C [2]: 104 % of control; T/C [3]: 100 % of control

With `Oc1ccc(N=Nc2nccs2)c(O)c1` as the molecule, how does the T/C (dose: 50.0 mg/kg/injection, schedule: Q01DX009 (ip), vehicle: saline with Tween-80) read?
Its T/C is 96 % of control.

What about the T/C (dose: 100.0 mg/kg/injection, schedule: Q01DX009 (ip), vehicle: saline with Tween-80) of the same molecule?
The T/C was 93 % of control.

What about the T/C (dose: 200.0 mg/kg/injection, schedule: Q01DX009 (ip), vehicle: saline with Tween-80) of the same molecule?
Its T/C is 99 % of control.
